Assay results published in paper PMC10535710, “Beauvericin suppresses the proliferation and pulmonary metastasis of osteosarcoma by selectively inhibiting TGFBR2 pathway” (International Journal of Biological Sciences, 2023).

Experiments:
TGFBR2 K252R = target: T1, TGFBR2 K252R (Homo sapiens, UniProt P37173, K252R); assay: DARTS (protection from pronase) in OS cells expressing the mutant; assay type: cell-based
T1 construct: TGFBR2 K252R overexpression plasmid transfected into OS cells

TGFBR2 = target: T2, TGFBR2 (Homo sapiens, UniProt P37173); assay: TR-FRET LanthaScreen Eu Kinase Binding Assay (tracer […]; reported as kinase activity inhibition); supported by MST, DARTS on recombinant protein, CETSA
T2 construct: MST used recombinant human TGFBR2 ECD
T2 sequence (P37173 188-567 limits assumed): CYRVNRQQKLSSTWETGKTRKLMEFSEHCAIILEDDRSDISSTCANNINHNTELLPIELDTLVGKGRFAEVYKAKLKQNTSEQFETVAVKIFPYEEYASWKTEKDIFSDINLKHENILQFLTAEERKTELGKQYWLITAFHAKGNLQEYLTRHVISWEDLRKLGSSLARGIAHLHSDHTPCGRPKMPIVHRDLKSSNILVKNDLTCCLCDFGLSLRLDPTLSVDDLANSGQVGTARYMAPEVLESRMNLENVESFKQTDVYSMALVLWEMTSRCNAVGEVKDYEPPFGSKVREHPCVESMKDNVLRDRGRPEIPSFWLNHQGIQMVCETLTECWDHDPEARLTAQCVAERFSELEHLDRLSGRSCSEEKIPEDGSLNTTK

T1 sequence (P37173 23-567 K252R): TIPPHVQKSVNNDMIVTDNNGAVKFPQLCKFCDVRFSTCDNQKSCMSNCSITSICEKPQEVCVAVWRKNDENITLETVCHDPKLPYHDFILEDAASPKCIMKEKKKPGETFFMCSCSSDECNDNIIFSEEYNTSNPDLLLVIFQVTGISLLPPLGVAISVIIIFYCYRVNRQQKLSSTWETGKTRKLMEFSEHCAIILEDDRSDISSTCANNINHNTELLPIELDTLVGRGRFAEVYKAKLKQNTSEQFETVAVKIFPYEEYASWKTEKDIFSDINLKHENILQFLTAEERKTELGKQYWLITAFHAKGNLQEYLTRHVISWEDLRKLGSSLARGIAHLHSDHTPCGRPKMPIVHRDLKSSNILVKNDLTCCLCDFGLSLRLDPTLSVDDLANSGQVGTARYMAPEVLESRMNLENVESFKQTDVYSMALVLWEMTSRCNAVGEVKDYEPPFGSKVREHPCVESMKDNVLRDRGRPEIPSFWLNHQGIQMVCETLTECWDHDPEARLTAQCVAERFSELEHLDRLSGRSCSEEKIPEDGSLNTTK

CC(C)[C@H]1OC(=O)[C@H](Cc2ccccc2)N(C)C(=O)[C@@H](C(C)C)OC(=O)[C@H](Cc2ccccc2)N(C)C(=O)[C@@H](C(C)C)OC(=O)[C@H](Cc2ccccc2)N(C)C1=O [BEA, beauvericin]
DARTS (protection from pronase) in OS cells expressing the mutant (TGFBR2 K252R): BEA suppressed the pronase-induced degradation of TGFBR2^K252R (Figure S7A-B), indicating that BEA may bind to TGFBR2 at N332 | IC50 (TGFBR2): 1.36 ± 0.21 µM
